From ChEMBL document CHEMBL6177963, “Development of acylhydrazone linked thiazoles as non-covalent dual inhibitors of SARS-CoV-2 proteases” (Eur J Med Chem, 2025)
The source made the active and inactive calls. The rule behind the calls is not given here.

Assays:
SARS-CoV-2 [1] = test: Anti-viral activity against SARS-CoV-2 BavPat1 infected in Vero E6 cells assessed as inhibition of viral RNA replication; type: functional, organism-based; conditions: Severe acute respiratory syndrome coronavirus 2, BavPat1, Vero C1008
[2] = Cytotoxicity against human HEK293 cells assessed as cell viability measured after 48 hrs by MTT assay; type: toxicity, cell-based
[3] = Cytotoxicity against African green monkey Vero E6 cells assessed as cell viability at 100 uM measured after 48 hrs by MTT assay relative to control; type: toxicity, cell-based, Vero C1008; conditions: chlorocebus sabaeus, read-out: Activity
[4] = biological target: Replicase polyprotein 1ab (Severe acute respiratory syndrome coronavirus 2) (UniProt P0DTD1); test: Binding affinity to SARS-CoV-2 PLpro assessed as thermal stability by measuring melting temperature of half of the proteins unfolded by differential scanning fluorimetry (DSF) (reference value: 45.79 degC)
SARS-CoV-2 [5] = test: Antiviral activity against SARS-CoV-2 infected in African green monkey Vero E6 cells assessed as viral load reduction at 4 uM by measuring viral RNA measured up to 72 hrs by RT-PCR analysis relative to control; type: functional, Severe acute respiratory syndrome coronavirus 2, Vero C1008; parameters: scale not given: the % may be the effect or the level left
[6] = biological target: Replicase polyprotein 1ab (Severe acute respiratory syndrome coronavirus 2) (UniProt P0DTD1); test: Non-covalent inhibition of SARS-CoV-2 PLpro by Lineweaver-Burk Plot analysis
[7] = tested on: Severe acute respiratory syndrome coronavirus 2; test: Binding affinity to SARS-CoV-2 MPro assessed as thermal stability by measuring melting temperature of half of the proteins unfolded by differential scanning fluorimetry (DSF) (reference value: 52.46 degC)
SARS-CoV-2 [8] = test: Antiviral activity against SARS-CoV-2 infected in African green monkey Vero E6 cells assessed as viral reduction by measuring viral RNA measured up to 72 hrs by RT-PCR analysis; type: functional, organism-based; conditions: Severe acute respiratory syndrome coronavirus 2, SARS-CoV-2, Vero C1008, 72 h
SARS-CoV-2 [9] = test: Antiviral activity against SARS-CoV-2 infected in African green monkey Vero E6 cells assessed as viral load reduction at 0.125 uM by measuring viral RNA measured up to 72 hrs by RT-PCR analysis relative to control; type: functional, Severe acute respiratory syndrome coronavirus 2, Vero C1008; parameters: scale not given: the % may be the effect or the level left
[10] = biological target: T1, Replicase polyprotein 1ab (Severe acute respiratory syndrome coronavirus 2, UniProt P0DTD1); test: Inhibition of recombinant SARS-CoV-2 PLpro using TLKGGI-AMC as substrate assessed as assessed as inhibition constant ny measuring fluorescence signal measured after 15 mins
[11] = biological target: Chymotrypsin (Homo sapiens) (UniProt Q99895+P17538+P40313+Q6GPI1); test: Inhibition of Chymotrypsin (unknown origin) assessed as BSA digestion; type: protein assay
[12] = tested on: Severe acute respiratory syndrome coronavirus 2; test: Non-covalent inhibition of SARS-CoV-2 MPro by Lineweaver-Burk Plot analysis
Human coronavirus 229E = test: Antiviral activity against HCoV-229E infected in human Huh7.5 Fluc cells; type: functional, organism-based
[13] = tested on: Severe acute respiratory syndrome coronavirus 2; test: Covalent binding affinity to SARS-CoV-2 MPro assessed as change in molecular weight by Mass spectrometry
[14] = tested on: Severe acute respiratory syndrome coronavirus 2; test: Non-covalent binding affinity to SARS-CoV-2 MPro assessed change in molecular weight by Mass spectrometry
[15] = biological target: Replicase polyprotein 1ab (Severe acute respiratory syndrome coronavirus 2) (UniProt P0DTD1); test: Reversible inhibition of SARS-CoV-2 PLpro assessed as enzyme activity by dialysis; parameters: scale not given: the % may be the effect or the level left
[16] = Acute toxicity in rat assessed as morphological changes in liver in portal, periportal, and centrilobular regions at 175 to 2000 mg/kg, po measured for 14 days by Hand E staining based analysis; type: organism-based; conditions: in vivo, 336 h, dose 175-2000 mg/kg, time 14 day
[17] = biological target: Replicase polyprotein 1ab (Severe acute respiratory syndrome coronavirus 2) (UniProt P0DTD1); test: Covalent binding affinity to SARS-CoV-2 PLpro assessed as change in molecular weight by Mass spectrometry
[18] = biological target: Replicase polyprotein 1ab (Severe acute respiratory syndrome coronavirus 2) (UniProt P0DTD1); test: Non-covalent binding affinity to SARS-CoV-2 PLpro assessed change in molecular weight by Mass spectrometry
[19] = Acute toxicity in rat assessed as change in body weight at 175 to 2000 mg/kg, po measured for 14 days; type: organism-based; conditions: in vivo, 336 h, dose 175-2000 mg/kg, time 14 day
[20] = tested on: Severe acute respiratory syndrome coronavirus 2; test: Reversible inhibition of SARS-CoV-2 MPro assessed as enzyme activity by dialysis; parameters: scale not given: the % may be the effect or the level left
[21] = Acute toxicity in rat assessed as toxicity at 175 to 2000 mg/kg, po measured for 14 days; type: organism-based; conditions: in vivo, dose 175-2000 mg/kg, time 14 day
[22] = Inhibition of SARS-CoV-2 MPro using Dabcyl-KTSAVLQ/SGFRKME- (Edans) as substrate by FRET assay; parameters: species or system Severe acute respiratory syndrome coronavirus 2
[23] = biological target: T1, Replicase polyprotein 1ab; test: Inhibition of SARS-CoV-2 PLPro
SARS-CoV-2 [24] = test: Anti-viral activity against SARS-CoV-2 Calu-3 by direct yield reduction assay (DYRA); type: functional, organism-based; conditions: Severe acute respiratory syndrome coronavirus 2, Calu-3, Calu-3
[25] = Cytotoxicity against African green monkey Vero E6 cells assessed as cell viability at 10 uM measured after 48 hrs by MTT assay relative to control; type: toxicity, cell-based, Vero C1008; conditions: chlorocebus sabaeus, read-out: Activity

O=C(O)c1ccccc1/C=N/Nc1ncc(-c2ccccc2Cl)s1
EC50 (SARS-CoV-2 [1]): 1590 nM

CCOC(=O)c1sc(NNC(=O)c2ccc(Cl)cc2)nc1C
IC50 at 48 h [2]: 45500 nM | viability at 48 h, 100 µM [3]: 92.5% | Tm [4]: 44.7 °C | Activity (SARS-CoV-2 [5]): >80% | Activity [6]: Active | Tm [7]: 52.1 °C | EC50 (SARS-CoV-2 [8]): 72 nM | Activity (SARS-CoV-2 [9]): >70% | Ki [10]: Not_active | inhibition [11]: inactive

CCOC(=O)c1sc(NNC(=O)c2ccc(Br)cc2)nc1C
IC50 at 48 h [2]: 219000 nM | viability at 48 h, 100 µM [3]: 86.9% | Tm [4]: 41.5 °C | Activity (SARS-CoV-2 [5]): >80% | Activity [6]: Active | Activity [12]: Active | Tm [7]: 49.7 °C | EC50 (SARS-CoV-2 [8]): 116 nM | Ki ([10]; read-out: Ki): 500 nM | inhibition [11]: inactive

CN(/N=C/c1ccccc1C(=O)O)c1ncc(-c2ccccc2Cl)s1
EC50 (SARS-CoV-2 [1]): 14 nM

C=C1NC(=O)[C@]2(C)CSC(=N2)c2csc(n2)[C@]2(C)CSC(=N2)C([C@@H](C)CC)NC(=O)[C@@H](C)NC(=O)/C(=C\C(C)C)COC(=O)c2csc(n2)[C@H](C(C)C)N(C)C(=O)[C@H](COC)NC1=O (some centres undefined)
IC50 (Human coronavirus 229E): 2390 nM

O=c1c2ccccc2[se]n1-c1ccccc1 [EBSELEN]
Tm [4]: 45.4 °C | Activity [13]: Active | Tm [7]: 52.4 °C | inhibition [11]: inactive | Activity [14]: inactive

Cc1ccc(-c2csc(NNC(=O)c3ccc(F)cc3)n2)cc1
IC50 at 48 h [2]: 25300 nM | viability at 48 h, 100 µM [3]: 92.1% | Tm [4]: 47.1 °C | Activity (SARS-CoV-2 [5]): >70% | EC50 (SARS-CoV-2 [8]): 38 nM | Activity (SARS-CoV-2 [9]): >70% | Ki ([10]; read-out: Ki): 340 nM | inhibition [11]: inactive

Oc1ccc(/C=N/Nc2nc(-c3ccc(Cl)cc3)cs2)cc1
IC50 at 48 h [2]: 194000 nM | viability at 48 h, 100 µM [3]: 91% | Tm [4]: 44.3 °C | Activity [6]: Active | Tm [7]: 51.4 °C | Ki ([10]; read-out: Ki): 290 nM | inhibition [11]: inactive

CCOC(=O)c1sc(NNC(=O)/C=C/c2ccccc2)nc1C
IC50 at 48 h [2]: 180000 nM | viability at 48 h, 100 µM [3]: 87.5% | Tm [4]: 41.5 °C | Activity (SARS-CoV-2 [5]): 56% | Activity [6]: Active | Activity [15]: > 90% | Activity [16]: Non-toxic | Activity [12]: Active | Activity [17]: inactive | Activity [18]: Active | Tm [7]: 49.9 °C | Activity [19]: Non-toxic | EC50 (SARS-CoV-2 [8]): 848 nM | Activity (SARS-CoV-2 [9]; Severe acute respiratory syndrome coronavirus 2, Vero C1008): inactive | Ki ([10]; read-out: Ki): 200 nM | inhibition [11]: inactive | Activity [20]: > 90% | LD50 at 336 h [21]: > 2000 mg/kg

O=C(NNc1nc(-c2ccc(Br)cc2)cs1)c1ccc(F)cc1
IC50 at 48 h [2]: 10500 nM | viability at 48 h, 100 µM [3]: 91.8% | Tm [4]: 45.9 °C | Activity [6]: Active | Activity [12]: Active | Tm [7]: 51.1 °C | Ki ([10]; read-out: Ki): 150 nM | inhibition [11]: inactive

Cc1ccc(-c2csc(NNC(=O)c3ccc([N+](=O)[O-])cc3)n2)cc1
IC50 at 48 h [2]: 6690 nM | viability at 48 h, 100 µM [3]: 82.3% | Tm [4]: 41.4 °C | Activity (SARS-CoV-2 [5]): >80% | Tm [7]: 52.6 °C | EC50 (SARS-CoV-2 [8]): 126 nM | Ki ([10]; read-out: Ki): 1250 nM | inhibition [11]: inactive

CCOC(=O)c1sc(NNC(=O)c2cccs2)nc1C
IC50 at 48 h [2]: 45800 nM | viability at 48 h, 100 µM [3]: 87.9% | Tm [4]: 41.1 °C | Activity (SARS-CoV-2 [5]): >70% | Activity [6]: Active | Activity [12]: Active | Tm [7]: 49.8 °C | EC50 (SARS-CoV-2 [8]): 118 nM | Ki ([10]; read-out: Ki): 230 nM | inhibition [11]: inactive

Cc1ccc(C(=O)NNc2nc(-c3ccc(Cl)cc3)cs2)cc1
IC50 at 48 h [2]: 41100 nM | viability at 48 h, 100 µM [3]: 91.5% | Tm [4]: 45.8 °C | Activity (SARS-CoV-2 [5]): >70% | Activity [6]: Active | Tm [7]: 51.8 °C | EC50 (SARS-CoV-2 [8]): 68 nM | Ki ([10]; read-out: Ki): 240 nM | inhibition [11]: inactive

N#Cc1ccc2nc(N3C(=O)CSC3c3c(F)cccc3Cl)sc2c1 (centres undefined)
IC50 [22]: 10 nM

O=C(O)c1cc(F)c2nc(N3[C@@H]4CC[C@H]3C[C@@H](OCc3c(-c5ccccc5OC(F)(F)F)noc3C3CC3)C4)sc2c1 [TROPIFEXOR]
IC50 [23]: 5110 nM

Cc1nc(NC(=O)C(C)(C)C)sc1-c1cnc(N(CC(C)(C)O)C2CCCCC2)s1
IC50 (SARS-CoV-2 [24]): 1570 nM

CCOC(=O)c1sc(NNC(=O)c2ccc([N+](=O)[O-])cc2)nc1C
IC50 at 48 h [2]: 25900 nM | viability at 48 h, 100 µM [3]: 89.2% | Tm [4]: 41.5 °C | Activity (SARS-CoV-2 [5]): >80% | Activity [6]: Active | Activity [15]: > 90% | Activity [16]: Non-toxic | Activity [12]: Active | Activity [17]: inactive | Activity [18]: Active | Tm [7]: 51 °C | Activity [19]: Non-toxic | EC50 (SARS-CoV-2 [8]): 97 nM | Ki ([10]; read-out: Ki): 450 nM | inhibition [11]: inactive | Activity [20]: > 90% | LD50 at 336 h [21]: > 2000 mg/kg

CC(=O)Oc1ccccc1C(=O)Nc1ncc([N+](=O)[O-])s1 [NITAZOXANIDE]
EC50 (SARS-CoV-2 [1]): 7480 nM

COc1cccc2c1C(=O)c1c(O)c3c(c(O)c1C2=O)C[C@@](O)(C(=O)CO)C[C@@H]3O[C@H]1C[C@H](N)[C@H](O)[C@H](C)O1 [DOXORUBICIN]
IC50 at 48 h [2]: 8230 nM | viability at 48 h, 10 µM [25]: 38.2%
